Experimental data: paper PMC5566973 (Frontiers in Pharmacology, 2017)

Assays:
[1] = biological target: T1, human MRP2 (Homo sapiens, UniProt Q92887); test: Vesicular transport assay, Sf9 membrane vesicles expressing human MRP2; assay type: in vitro ADME; details: probe at 50 μM
T1 construct: purchased GenoMembrane (Kanagawa, Japan); host or cells: Sf9
Procedure: (§1) The vesicular transport assay was implemented as described in the GenoMembrane™ vesicular transport kit protocol (GenoMembrane, Kanagawa, Japan) with minor changes. Briefly, vesicle stocks were thawed and diluted with assay buffer (50 mM MOPS-Tris, 70 mM KCl, and 7.5 mM MgCl2). […] MgAMP instead of MgATP was used as a control. Apart from these, 4 mM glutathione was also included in BCRP and MRP2 assays. Transport was terminated with ice cold assay buffer, and then samples were quickly transferred to a filter plate. Wells were immediately washed 5 times with 200 μL assay buffer and dried. The vesicles on the plate were dissolved in 50 μL of 80% methanol and centrifuged at 2,000 rpm for 2 min after collection, and repeating the above procedures. Mixed the two filtrates together and added the pre-cooled methanol. After centrifugation at 12,000 rpm for 5 min at 4°C, a 5 μL aliquot of supernatant was injected into the UPLC-ESI-MS/MS system for analysis. Furthermore, the uptake of NMQ (MDR1), LY (BCRP), and E217βG (MRP2) was used to evaluate the activity of specific vesicles.

[2] = Urinary and fecal excretion in rats; assay type: in vivo, Sprague-Dawley rats; details: for Cumulative excretion of the analyte, SUM of urine and feces: within 72 h
Procedure: Access to water was maintained all the time. Samples including blank urine and feces before dosing, urine and feces from 0 to 24 h, 24 to 48 h, and 48 to 72 h after dosing were collected and stored at −80°C until analysis.
Urine samples were thawed and an aliquot of 100 μL was processed for detection as described in Section Drug Analysis. Feces were homogenized and then weighed, added 6-folds of acetonitrile, extracted by ultrasonic wave for 1 h and then centrifuged. An aliquot of 100 μL was also processed for detection as described in Section Drug Analysis.

[3] = biological target: T2, human MDR1 (Homo sapiens, UniProt P08183); test: Vesicular transport assay, Sf9 membrane vesicles expressing human MDR1; assay type: in vitro ADME; details: probe at 5 μM
T2 construct: purchased GenoMembrane (Kanagawa, Japan); host or cells: Sf9
Procedure: as §1

[4] = system: Caco-2 cell monolayers; details: transcellular flux marker; ref Shen et al., 2015; cited from earlier work
[5] = biological target: T3, human BCRP (Homo sapiens, UniProt Q9UNQ0); test: Vesicular transport assay, Sf9 membrane vesicles expressing human BCRP; assay type: in vitro ADME; details: 10 μM, MgATP vs MgAMP
T3 construct: purchased GenoMembrane (Kanagawa, Japan); host or cells: Sf9
T3 sequence (Q9UNQ0 1-655): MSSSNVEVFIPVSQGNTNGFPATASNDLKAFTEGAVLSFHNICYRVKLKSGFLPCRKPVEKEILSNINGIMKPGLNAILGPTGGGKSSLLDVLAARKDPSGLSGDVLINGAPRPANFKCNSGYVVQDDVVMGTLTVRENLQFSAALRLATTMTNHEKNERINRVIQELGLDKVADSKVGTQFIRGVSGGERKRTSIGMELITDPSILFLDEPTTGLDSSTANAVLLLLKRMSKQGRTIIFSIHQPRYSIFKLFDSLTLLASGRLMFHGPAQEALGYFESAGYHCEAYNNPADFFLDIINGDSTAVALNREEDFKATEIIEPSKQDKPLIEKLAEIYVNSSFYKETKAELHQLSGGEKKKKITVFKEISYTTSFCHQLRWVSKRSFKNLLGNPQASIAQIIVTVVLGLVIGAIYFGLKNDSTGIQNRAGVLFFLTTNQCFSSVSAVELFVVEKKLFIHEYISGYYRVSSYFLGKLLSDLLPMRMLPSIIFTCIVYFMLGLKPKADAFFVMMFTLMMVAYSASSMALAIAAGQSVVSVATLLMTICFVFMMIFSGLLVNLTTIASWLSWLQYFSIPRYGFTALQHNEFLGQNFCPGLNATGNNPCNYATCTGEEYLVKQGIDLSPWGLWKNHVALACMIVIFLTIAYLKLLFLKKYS
Procedure: as §1

[6] = after oral harmaline 40.0 mg/kg, 24 h
[7] = after oral harmaline 40.0 mg/kg, 48 h
[8] = after oral harmaline 40.0 mg/kg, 72 h
[9] = after oral harmaline 40.0 mg/kg
[10] = after oral harmine 40.0 mg/kg, 24 h
[11] = after oral harmine 40.0 mg/kg, 48 h
[12] = after oral harmine 40.0 mg/kg, 72 h

T1 sequence (Q92887 whole entry): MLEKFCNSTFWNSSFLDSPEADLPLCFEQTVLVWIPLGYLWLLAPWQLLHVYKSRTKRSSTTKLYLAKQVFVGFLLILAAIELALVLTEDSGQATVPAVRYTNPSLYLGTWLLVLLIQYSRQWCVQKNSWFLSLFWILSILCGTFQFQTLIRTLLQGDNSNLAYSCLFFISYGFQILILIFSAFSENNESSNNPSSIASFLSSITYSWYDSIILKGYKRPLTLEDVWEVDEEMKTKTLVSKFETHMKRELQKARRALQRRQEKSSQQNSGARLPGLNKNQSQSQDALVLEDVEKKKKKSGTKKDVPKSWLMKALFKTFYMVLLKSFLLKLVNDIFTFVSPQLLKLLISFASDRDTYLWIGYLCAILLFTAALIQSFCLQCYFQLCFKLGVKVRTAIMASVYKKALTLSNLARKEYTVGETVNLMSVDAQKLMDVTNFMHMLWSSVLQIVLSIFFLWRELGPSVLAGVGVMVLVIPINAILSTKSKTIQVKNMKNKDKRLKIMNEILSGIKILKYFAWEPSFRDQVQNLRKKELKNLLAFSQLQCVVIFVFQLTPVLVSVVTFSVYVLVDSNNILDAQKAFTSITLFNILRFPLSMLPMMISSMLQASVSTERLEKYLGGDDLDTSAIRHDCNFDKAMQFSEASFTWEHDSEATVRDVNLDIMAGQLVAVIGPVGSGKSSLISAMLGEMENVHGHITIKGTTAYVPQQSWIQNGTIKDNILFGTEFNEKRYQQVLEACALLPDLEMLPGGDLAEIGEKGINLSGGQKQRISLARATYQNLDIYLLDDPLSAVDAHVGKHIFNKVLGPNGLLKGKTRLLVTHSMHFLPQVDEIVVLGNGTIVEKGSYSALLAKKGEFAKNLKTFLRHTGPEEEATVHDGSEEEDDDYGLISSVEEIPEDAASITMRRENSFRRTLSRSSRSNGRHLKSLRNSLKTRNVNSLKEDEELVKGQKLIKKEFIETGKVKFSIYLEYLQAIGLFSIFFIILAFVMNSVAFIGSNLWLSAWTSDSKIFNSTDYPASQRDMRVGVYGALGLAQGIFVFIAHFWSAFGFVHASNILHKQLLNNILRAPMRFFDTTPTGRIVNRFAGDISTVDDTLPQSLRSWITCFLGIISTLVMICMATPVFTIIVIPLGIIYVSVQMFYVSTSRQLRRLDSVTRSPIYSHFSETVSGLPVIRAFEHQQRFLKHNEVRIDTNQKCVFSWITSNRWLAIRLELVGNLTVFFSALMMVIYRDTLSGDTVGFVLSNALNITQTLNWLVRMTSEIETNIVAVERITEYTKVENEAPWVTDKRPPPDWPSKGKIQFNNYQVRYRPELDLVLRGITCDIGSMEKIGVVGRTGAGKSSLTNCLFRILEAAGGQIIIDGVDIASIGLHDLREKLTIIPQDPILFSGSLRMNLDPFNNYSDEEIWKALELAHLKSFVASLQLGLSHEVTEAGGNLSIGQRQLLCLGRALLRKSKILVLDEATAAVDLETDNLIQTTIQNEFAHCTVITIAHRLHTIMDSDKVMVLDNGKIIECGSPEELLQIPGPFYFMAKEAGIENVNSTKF
T2 sequence (P08183 whole entry): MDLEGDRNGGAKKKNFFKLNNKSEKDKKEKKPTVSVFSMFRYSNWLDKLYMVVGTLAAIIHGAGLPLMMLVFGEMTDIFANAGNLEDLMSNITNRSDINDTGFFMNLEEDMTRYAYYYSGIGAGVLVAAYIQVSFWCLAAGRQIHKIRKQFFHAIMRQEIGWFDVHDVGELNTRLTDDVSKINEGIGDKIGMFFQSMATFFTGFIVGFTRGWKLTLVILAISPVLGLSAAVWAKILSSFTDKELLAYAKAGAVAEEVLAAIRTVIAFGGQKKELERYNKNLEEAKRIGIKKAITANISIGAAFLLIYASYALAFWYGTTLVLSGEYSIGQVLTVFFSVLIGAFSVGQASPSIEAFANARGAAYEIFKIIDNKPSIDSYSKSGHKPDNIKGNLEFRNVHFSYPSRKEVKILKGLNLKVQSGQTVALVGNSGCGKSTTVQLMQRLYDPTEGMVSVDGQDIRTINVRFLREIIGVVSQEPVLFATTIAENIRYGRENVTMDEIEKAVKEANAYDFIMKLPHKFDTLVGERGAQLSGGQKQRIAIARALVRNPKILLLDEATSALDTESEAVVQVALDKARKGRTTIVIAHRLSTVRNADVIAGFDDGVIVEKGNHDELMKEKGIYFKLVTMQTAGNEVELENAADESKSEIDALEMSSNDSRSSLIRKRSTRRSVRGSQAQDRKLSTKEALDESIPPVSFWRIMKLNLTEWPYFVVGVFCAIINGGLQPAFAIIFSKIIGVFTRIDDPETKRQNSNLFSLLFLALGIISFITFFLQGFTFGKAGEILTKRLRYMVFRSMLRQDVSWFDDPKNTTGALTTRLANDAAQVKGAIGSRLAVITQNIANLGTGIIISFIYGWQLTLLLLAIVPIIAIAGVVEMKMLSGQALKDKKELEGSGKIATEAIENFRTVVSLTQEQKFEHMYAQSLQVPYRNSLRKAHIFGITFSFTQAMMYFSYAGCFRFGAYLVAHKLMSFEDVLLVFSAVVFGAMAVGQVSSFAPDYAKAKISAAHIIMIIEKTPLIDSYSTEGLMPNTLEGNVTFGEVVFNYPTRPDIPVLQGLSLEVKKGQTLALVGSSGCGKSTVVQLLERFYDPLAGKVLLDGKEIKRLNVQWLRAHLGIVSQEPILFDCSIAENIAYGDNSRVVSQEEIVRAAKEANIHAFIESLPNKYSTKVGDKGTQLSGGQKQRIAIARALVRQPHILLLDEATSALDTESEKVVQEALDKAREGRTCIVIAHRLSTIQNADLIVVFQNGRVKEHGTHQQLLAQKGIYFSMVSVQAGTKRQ

For `C[C@]12CC[C@@H]3c4ccc(O)cc4CC[C@H]3[C@@H]1CC[C@@H]2O[C@@H]1O[C@H](C(=O)O)[C@@H](O)[C@H](O)[C@H]1O` [E217βG, estradiol-17 β-glucuronide, reference compound], the “uptake ratio (UR)” value [1] was 7.71.

For `CC1=NCCc2c1[nH]c1cc(O)ccc21` [Harmalol], the “Cumulative excretion in feces (%) of the analyte” value (shortened to “Cumulative excretion in feces (%)”) [2, 6] was 1.73 ± 1.01%, the “Cumulative excretion in urine (%) of the analyte” value (“Cumulative excretion in urine (%)” for short) [2, 6] was 1.16 ± 0.81% and the “Cumulative excretion in feces (%)” value [2, 7] was 1.87 ± 1.04%. The “Cumulative excretion in urine (%)” value [2, 7] was 2.03 ± 2.12%, the “Cumulative excretion in feces (%)” value [2, 8] was 1.89 ± 1.04% and the “Cumulative excretion in urine (%)” value [2, 8] was 2.30 ± 2.36%. The “Cumulative excretion of the analyte, SUM of urine and feces” value (“Cumulative excretion of the analyte” below) [2, 9] was 4.18 ± 2.67%.

With `Cc1[nH]ccc2c1[nH]c1cc(=O)ccc12` [Harmol] the “Cumulative excretion in feces (%)” value [2, 6] was 1.24 ± 0.51%, the “Cumulative excretion in urine (%)” value [2, 6] was 0.23 ± 0.42% and the “Cumulative excretion in feces (%)” value [2, 7] was 1.64 ± 0.73%. For the same compound, the “Cumulative excretion in urine (%)” value [2, 7] was 0.50 ± 0.55%, the “Cumulative excretion in feces (%)” value [2, 8] was 1.70 ± 0.75% and the “Cumulative excretion in urine (%)” value [2, 8] was 0.65 ± 0.56%. The “Cumulative excretion of the analyte” value [2, 9] was 2.35 ± 0.91%, the “Cumulative excretion in feces (%)” value [2, 10] was 5.66 ± 2.96% and the “Cumulative excretion in urine (%)” value [2, 10] was 2.51 ± 2.82%. The “Cumulative excretion in feces (%)” value [2, 11] was 7.69 ± 3.33%, the “Cumulative excretion in urine (%)” value [2, 11] was 4.63 ± 4.53% and the “Cumulative excretion in feces (%)” value [2, 12] was 8.38 ± 3.47%. The “Cumulative excretion in urine (%)” value [2, 12] was 5.42 ± 5.19% and the “Cumulative excretion of the analyte” value ([2]; after oral harmine 40.0 mg/kg) was 13.80 ± 5.71%.

For `C=C[C@H]1C[N+]2(C)CC[C@H]1C[C@@H]2[C@@H](O)c1ccnc2ccc(OC)cc12` [NMQ, N-methylquinidine, reference compound], the “uptake ratio (UR)” value [3] was 2.05.

In the case of `CC(C)NCC(O)COc1cccc2ccccc12` (stereo not shown) [propranolol, reference compound], the PappAB [4] is listed as 41.90 ± 3.30 × 10^−6 cm/s.

In the case of lucifer yellow [LY, reference compound], the “uptake ratio (UR)” value [5] is reported as 19.66.
